IC50 and inhibition data for ten compounds are collected here from ChEMBL document CHEMBL4184307, “Identification of caffeoylquinic acid derivatives as natural protein tyrosine phosphatase 1B inhibitors from Artemisia princeps” (Bioorg Med Chem Lett, 2018).

Assay [1] deals with T1, Tyrosine-protein phosphatase non-receptor type 1 (Homo sapiens, UniProt P18031).
T1 sequence (P18031 whole entry): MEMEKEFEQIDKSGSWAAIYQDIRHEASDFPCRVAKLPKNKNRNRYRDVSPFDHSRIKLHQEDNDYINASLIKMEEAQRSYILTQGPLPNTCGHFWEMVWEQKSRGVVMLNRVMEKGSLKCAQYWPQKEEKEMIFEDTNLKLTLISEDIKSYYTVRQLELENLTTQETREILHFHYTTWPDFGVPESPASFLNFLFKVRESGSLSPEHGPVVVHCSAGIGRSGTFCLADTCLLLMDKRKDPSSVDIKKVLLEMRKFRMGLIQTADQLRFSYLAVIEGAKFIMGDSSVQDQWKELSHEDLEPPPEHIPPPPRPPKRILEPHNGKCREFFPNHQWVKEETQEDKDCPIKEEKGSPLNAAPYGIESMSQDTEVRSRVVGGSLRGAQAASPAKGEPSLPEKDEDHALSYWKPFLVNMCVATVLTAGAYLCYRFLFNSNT
The assay can be described thus: (§1) Inhibition of PTP1B (unknown origin).

Assay [2] concerns the target T2, Tyrosine-protein phosphatase non-receptor type 1 (Homo sapiens) (UniProt P18031).
T2 sequence (whole entry): T1 sequence (P18031 whole entry)
The description is as §1.

Assay [3] deals with Dual specificity protein phosphatase 3 (Homo sapiens) (UniProt P51452). The assay can be described thus: Inhibition of VHR (unknown origin) at 100 uM relative to control.
In assay [4] the target is T3, Tyrosine-protein phosphatase non-receptor type 2 (Homo sapiens, UniProt P17706).
T3 sequence (P17706 whole entry): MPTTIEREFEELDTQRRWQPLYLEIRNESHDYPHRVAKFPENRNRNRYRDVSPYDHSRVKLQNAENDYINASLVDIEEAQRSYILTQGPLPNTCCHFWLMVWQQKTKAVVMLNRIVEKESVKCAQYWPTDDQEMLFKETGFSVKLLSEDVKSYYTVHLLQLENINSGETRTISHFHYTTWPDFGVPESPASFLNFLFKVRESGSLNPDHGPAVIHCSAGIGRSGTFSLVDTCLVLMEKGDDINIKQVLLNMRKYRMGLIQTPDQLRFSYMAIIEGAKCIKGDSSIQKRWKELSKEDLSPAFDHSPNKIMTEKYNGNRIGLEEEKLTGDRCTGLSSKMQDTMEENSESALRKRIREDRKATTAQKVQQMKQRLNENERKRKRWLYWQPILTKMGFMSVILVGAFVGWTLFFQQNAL
Kind of assay: Inhibition of TCPTP (unknown origin).

Assay [5] addresses T2, Tyrosine-protein phosphatase non-receptor type 1 (Homo sapiens). Kind of assay: Inhibition of PTP1B (unknown origin) at 100 uM relative to control.
In assay [6] the target is T4, Tyrosine-protein phosphatase non-receptor type 2 (Homo sapiens) (UniProt P17706).
T4 sequence (whole entry): T3 sequence (P17706 whole entry)
The assay can be described thus: Inhibition of TCPTP (unknown origin) at 100 uM relative to control.

Assay [7] concerns the target T5, Tyrosine-protein phosphatase non-receptor type 11 (Homo sapiens) (UniProt Q06124).
T5 sequence (whole entry): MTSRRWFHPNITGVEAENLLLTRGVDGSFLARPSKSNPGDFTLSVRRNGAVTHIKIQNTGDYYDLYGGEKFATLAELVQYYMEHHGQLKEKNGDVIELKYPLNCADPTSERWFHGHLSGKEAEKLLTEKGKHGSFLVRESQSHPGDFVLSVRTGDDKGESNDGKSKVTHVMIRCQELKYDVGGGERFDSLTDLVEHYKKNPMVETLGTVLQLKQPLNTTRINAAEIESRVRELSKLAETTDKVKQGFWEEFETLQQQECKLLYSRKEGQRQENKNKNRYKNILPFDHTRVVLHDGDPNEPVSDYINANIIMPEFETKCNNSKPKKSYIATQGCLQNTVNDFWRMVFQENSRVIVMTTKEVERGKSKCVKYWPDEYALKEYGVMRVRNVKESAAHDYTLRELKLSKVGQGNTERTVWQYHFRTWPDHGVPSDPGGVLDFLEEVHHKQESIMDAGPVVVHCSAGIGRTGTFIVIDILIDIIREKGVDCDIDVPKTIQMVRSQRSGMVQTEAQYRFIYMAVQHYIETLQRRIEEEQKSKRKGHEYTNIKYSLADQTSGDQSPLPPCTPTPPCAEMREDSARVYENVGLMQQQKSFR
The assay can be described thus: Inhibition of SHP2 (unknown origin) at 100 uM relative to control.

The target of assay [8] is Tyrosine-protein phosphatase non-receptor type 6 (Homo sapiens) (UniProt P29350). Kind of assay: Inhibition of SHP1 (unknown origin) at 100 uM relative to control.

Molecules are shown by their SMILES.

Dual specificity protein phosphatase 3 (Homo sapiens), sequence (P51452 whole entry, looked up): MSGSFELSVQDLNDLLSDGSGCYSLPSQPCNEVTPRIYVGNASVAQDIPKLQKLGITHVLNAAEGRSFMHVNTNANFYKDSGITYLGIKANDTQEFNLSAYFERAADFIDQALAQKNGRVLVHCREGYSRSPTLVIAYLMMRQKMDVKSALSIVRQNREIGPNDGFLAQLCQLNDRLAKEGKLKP
Tyrosine-protein phosphatase non-receptor type 6 (Homo sapiens), sequence (P29350 whole entry): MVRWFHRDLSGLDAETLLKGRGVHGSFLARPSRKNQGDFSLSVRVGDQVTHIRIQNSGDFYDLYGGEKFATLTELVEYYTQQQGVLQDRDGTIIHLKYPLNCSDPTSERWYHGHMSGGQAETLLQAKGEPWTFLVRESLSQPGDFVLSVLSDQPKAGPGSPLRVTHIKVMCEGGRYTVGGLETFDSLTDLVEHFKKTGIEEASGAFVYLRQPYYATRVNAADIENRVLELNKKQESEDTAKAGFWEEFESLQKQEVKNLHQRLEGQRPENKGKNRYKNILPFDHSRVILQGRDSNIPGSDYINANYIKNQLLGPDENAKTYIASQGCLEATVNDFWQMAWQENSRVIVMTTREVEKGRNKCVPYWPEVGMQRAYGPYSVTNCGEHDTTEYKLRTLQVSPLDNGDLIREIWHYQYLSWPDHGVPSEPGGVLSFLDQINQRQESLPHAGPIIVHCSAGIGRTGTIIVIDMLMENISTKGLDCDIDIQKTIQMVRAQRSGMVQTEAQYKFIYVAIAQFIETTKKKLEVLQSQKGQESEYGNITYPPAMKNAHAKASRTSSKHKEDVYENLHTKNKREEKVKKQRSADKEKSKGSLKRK

The term IC50 denotes the point on the concentration scale where inhibition reaches its midpoint. A low value points to higher potency. As usually defined, the inhibition is the drop in the measured response relative to a control, in per cent. Compound `COC(=O)[C@]1(O)C[C@@H](O)[C@@H](OC(=O)/C=C/c2ccc(O)c(O)c2)[C@H](OC(=O)/C=C/c2ccc(O)c(O)c2)C1` came in with an IC50 in assay [1] of 56 µM. For the same compound, the inhibition result in assay [2] was “Dose-dependent effect”.

The compound `O=C(/C=C/c1ccc(O)c(O)c1)O[C@@H]1C[C@](OC(=O)/C=C/c2ccc(O)c(O)c2)(C(=O)O)C[C@@H](O)[C@H]1O` [1,5-O-TRANS-DICAFFEOYLQUINIC ACID] returned a half-inhibitory concentration (IC50) in assay [1] of 35.4 µM. Also, the inhibition entry in assay [2] is “Dose-dependent effect”.

Consider `COC(=O)[C@]1(O)C[C@@H](OC(=O)/C=C/c2ccc(O)c(O)c2)[C@@H](O)[C@H](OC(=O)/C=C/c2ccc(O)c(O)c2)C1`, for which the IC50 in assay [1] was found to be 42.7 µM. The inhibition result in assay [2] is “Dose-dependent effect”.

For `O=C(/C=C/c1ccc(O)c(O)c1)O[C@@H]1C[C@](O)(C(=O)O)C[C@@H](O)[C@H]1O` [CHLOROGENIC ACID], the inhibition in assay [3] was 30.5%; in assay [2] it was “Dose-dependent effect”; in assay [5], 83.1%; in assay [6] it was 65.6%; in assay [7], 28.4%; in assay [8], 32%. Moreover, the IC50 in assay [4] amounted to 77.9 µM.

For the compound `O=C(/C=C/c1ccc(O)c(O)c1)O[C@@H]1C[C@](O)(C(=O)O)C[C@@H](OC(=O)/C=C/c2ccc(O)c(O)c2)[C@H]1O`, in assay [1], the midpoint of inhibition, the IC50, lay at 37.9 µM. Further, the inhibition result in assay [2] was “Dose-dependent effect”.

In assay [1], `O=C(/C=C/c1ccc(O)c(O)c1)O[C@H]1[C@H](O)C[C@](O)(C(=O)O)C[C@H]1OC(=O)/C=C/c1ccc(O)c(O)c1` returned a half-inhibitory concentration (IC50) of 59.4 µM. The inhibition entry in assay [2] is “Dose-dependent effect”.

In assay [1], `O=C(/C=C/c1ccc(O)c(O)c1)O[C@H]1[C@H](O)C[C@](O)(C(=O)O)C[C@H]1O` had an IC50 of 43.9 µM. The inhibition entry in assay [2] was “Dose-dependent effect”.

In assay [1], `COc1cc(/C=C/C(=O)O[C@H]2[C@H](O)C[C@](O)(C(=O)O)C[C@H]2OC(=O)/C=C/c2ccc(O)c(OC)c2)ccc1O` yielded an IC50 of 67.1 µM. Moreover, the inhibition result in assay [2] was “Dose-dependent effect”.

In assay [1], `O=C(/C=C/c1ccc(O)c(O)c1)O[C@@H]1[C@H](O)C[C@@](O)(C(=O)O)C[C@H]1OC(=O)/C=C/c1ccc(O)c(O)c1` showed an IC50 of 41.5 µM. The inhibition entry in assay [2] is “Dose-dependent effect”.

Take `O=C(/C=C/c1ccc(O)c(O)c1)O[C@@H]1C[C@@](O)(C(=O)O)C[C@@H](O)[C@@H]1O`: the inhibition result in assay [2] is “Dose-dependent effect”.
